Data from a compilation of properties of binary mixtures (doi:10.1021/je800965t).

Test: xn = mol fraction of the nth substance listed
Settings: 101 kPa

O + CCCn1cc[n+](C)c1C.F[B-](F)(F)F
x1 = 1
Settings | viscosity [mPa·s]
298.15 K | 0.89
303.15 K | 0.8
313.15 K | 0.65
318.15 K | 0.6
323.15 K | 0.55
333.15 K | 0.47
343.15 K | 0.4

CCCn1cc[n+](C)c1C.F[B-](F)(F)F + O
viscosity [mPa·s]
Settings | x2 = 0 | x2 = 0.0939 | x2 = 0.1932 | x2 = 0.2833 | x2 = 0.3944 | x2 = 0.4987 | x2 = 0.5995 | x2 = 0.6985 | x2 = 0.8009 | x2 = 0.8988
298.15 K | 377 | 225 | – | 85.3 | 50.6 | 31.29 | 19.71 | 12.03 | 6.69 | 3.23
303.15 K | 272 | 168 | – | 66.8 | – | – | 16.21 | 10.04 | 5.67 | 2.78
308.15 K | 202 | 127.9 | 81.1 | – | – | 21.07 | – | 8.53 | 4.9 | 2.42
313.15 K | 152 | 99.3 | 64.5 | 43.2 | 27.18 | 17.63 | 11.52 | 7.31 | 4.23 | 2.14
318.15 K | 117.4 | – | – | 35.71 | 22.79 | 14.97 | 9.88 | 6.34 | 3.71 | 1.89
323.15 K | 92.3 | 63.3 | 42.8 | 29.65 | 19.32 | 12.87 | 8.58 | 5.55 | 3.29 | 1.69
333.15 K | 60.4 | – | – | 21.37 | 14.38 | 9.78 | – | – | 2.62 | 1.39
343.15 K | 40.7 | – | 21.84 | 16.02 | 11.04 | 7.66 | 5.3 | 3.53 | 2.15 | 1.16
